Results: patent US12290513B2, “Therapeutic methods and compositions for treating movement disorders” (Vima Therapeutics, Inc., priority 2023, dated 2025)
One block for each compound: values may come before it.

How the values were obtained:
[1] = system: haloperidol-induced catalepsy; assay: Haloperidol-induced catalepsy (bar test); format: in vivo, Sprague Dawley rats; conditions: rats, haloperidol 1 mg/kg sc, Rac-THP 10, 20, 30 mg/kg, R-THP or S-THP 5, 10, 15 mg/kg ip
Description: Animals: Adult male Sprague Dawley rats (230-235 g) from Envigo were used in this study. Upon receipt, rats were group housed in ventilated cages and acclimated for one week prior to testing.
The front paws of a rat were placed then on a horizontal metal bar raised 6″ above a Plexiglas platform. Each rat underwent 3 trials of 60 seconds each. The test ended when the animal's front paws return to the platform or after 60 seconds. Rats were tested at 30 and 60 minutes after treatment.
Data were analyzed by one-way analysis of variance (ANOVA) followed by Tukey's post-hoc comparisons, where appropriate. Data are represented as mean and standard error to the mean (SEM).

[2] = biological target: T1, CYP2B6 (Homo sapiens, UniProt P20813); assay: Incubation with recombinant CYP2B6
T1 sequence (P20813 1-491): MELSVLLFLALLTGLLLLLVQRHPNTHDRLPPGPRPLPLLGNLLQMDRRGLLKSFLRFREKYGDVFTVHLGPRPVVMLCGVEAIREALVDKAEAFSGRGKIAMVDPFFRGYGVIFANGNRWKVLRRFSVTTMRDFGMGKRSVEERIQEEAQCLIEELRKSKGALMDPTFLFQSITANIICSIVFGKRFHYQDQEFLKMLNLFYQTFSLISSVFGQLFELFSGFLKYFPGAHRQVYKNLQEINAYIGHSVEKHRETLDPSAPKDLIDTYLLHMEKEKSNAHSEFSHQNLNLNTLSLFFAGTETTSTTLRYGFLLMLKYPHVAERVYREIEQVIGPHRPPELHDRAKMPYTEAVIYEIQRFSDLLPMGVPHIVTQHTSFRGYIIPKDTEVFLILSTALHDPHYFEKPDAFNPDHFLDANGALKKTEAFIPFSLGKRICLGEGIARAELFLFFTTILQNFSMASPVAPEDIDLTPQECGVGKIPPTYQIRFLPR

[3] = system: guinea pig ileum myenteric plexus-longitudinal muscle (MPLM) strips; assay: EFS-induced contractions in guinea pig ileum MPLM strips
[4] = biological target: CYP2C9 (Homo sapiens, UniProt P11712); assay: Incubation with recombinant CYP2C9
Sequence of CYP2C9 (P11712 whole entry): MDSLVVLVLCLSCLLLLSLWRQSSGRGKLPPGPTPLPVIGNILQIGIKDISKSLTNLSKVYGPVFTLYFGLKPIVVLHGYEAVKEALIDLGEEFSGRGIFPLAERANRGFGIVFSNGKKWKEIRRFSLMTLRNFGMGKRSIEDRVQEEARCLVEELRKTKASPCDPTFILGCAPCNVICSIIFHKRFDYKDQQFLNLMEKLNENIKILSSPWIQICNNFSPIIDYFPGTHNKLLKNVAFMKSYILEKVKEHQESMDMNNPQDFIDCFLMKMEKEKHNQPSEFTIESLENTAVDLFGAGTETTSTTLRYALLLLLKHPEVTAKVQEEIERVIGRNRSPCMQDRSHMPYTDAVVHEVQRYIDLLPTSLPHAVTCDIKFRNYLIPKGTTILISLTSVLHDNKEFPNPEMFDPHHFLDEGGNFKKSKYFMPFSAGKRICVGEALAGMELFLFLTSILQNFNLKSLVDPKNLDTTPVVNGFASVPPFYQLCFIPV

[5] = biological target: T2, CYP1A2 (Homo sapiens, UniProt P05177); assay: Incubation with recombinant CYP1A2
T2 sequence (P05177 1-516): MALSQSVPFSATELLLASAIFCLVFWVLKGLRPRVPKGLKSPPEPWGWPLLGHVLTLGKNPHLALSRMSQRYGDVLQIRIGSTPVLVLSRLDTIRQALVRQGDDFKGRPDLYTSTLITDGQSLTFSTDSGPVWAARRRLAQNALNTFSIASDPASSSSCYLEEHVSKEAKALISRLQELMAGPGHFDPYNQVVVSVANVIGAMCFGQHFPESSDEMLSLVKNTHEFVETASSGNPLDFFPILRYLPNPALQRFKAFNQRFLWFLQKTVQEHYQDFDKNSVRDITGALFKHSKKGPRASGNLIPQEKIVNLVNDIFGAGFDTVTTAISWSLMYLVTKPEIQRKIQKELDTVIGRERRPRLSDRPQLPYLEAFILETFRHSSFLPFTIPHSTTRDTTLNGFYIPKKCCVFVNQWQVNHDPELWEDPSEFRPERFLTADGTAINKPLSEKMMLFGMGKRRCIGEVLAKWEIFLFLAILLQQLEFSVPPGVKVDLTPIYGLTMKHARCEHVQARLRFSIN

[6] = Description: The resulting metabolites were analyzed by liquid chromatography-mass spectrometry, and metabolite peaks were detected and measured.
[7] = biological target: CYP3A5 (Homo sapiens, UniProt P20815); assay: Incubation with recombinant CYP3A5
Sequence of CYP3A5 (P20815 whole entry): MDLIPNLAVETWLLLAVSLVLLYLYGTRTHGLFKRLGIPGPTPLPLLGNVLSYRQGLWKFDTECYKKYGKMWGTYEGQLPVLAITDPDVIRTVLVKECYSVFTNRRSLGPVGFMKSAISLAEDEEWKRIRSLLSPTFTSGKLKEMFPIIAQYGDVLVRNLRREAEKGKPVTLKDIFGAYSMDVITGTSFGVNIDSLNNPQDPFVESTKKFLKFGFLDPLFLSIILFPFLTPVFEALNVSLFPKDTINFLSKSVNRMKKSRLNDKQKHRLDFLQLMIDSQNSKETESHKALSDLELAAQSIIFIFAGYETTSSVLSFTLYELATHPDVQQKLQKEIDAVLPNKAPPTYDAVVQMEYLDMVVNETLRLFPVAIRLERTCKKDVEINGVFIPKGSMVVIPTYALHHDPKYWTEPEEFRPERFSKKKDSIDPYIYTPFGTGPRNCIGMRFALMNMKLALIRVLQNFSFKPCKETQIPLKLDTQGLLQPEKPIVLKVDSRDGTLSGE

[8] = biological target: CYP3A4 (Homo sapiens, UniProt P08684); assay: Incubation with recombinant CYP3A4
Sequence of CYP3A4 (P08684 whole entry): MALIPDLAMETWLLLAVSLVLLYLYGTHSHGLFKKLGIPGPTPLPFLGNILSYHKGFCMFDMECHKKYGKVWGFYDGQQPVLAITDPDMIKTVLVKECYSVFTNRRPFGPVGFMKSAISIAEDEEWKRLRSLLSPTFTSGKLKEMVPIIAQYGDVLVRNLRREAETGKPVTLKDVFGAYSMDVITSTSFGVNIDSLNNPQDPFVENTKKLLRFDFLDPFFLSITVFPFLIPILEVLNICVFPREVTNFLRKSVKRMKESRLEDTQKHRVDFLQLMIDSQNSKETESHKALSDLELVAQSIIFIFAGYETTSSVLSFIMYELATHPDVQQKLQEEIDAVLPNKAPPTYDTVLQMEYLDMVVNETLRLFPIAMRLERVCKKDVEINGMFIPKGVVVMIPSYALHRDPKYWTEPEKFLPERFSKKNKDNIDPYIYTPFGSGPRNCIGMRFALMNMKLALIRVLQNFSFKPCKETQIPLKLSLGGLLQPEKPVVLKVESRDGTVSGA

[9] = biological target: T3, CYP2A6 (Homo sapiens, UniProt P11509); assay: Incubation with recombinant CYP2A6
T3 sequence (P11509 1-494): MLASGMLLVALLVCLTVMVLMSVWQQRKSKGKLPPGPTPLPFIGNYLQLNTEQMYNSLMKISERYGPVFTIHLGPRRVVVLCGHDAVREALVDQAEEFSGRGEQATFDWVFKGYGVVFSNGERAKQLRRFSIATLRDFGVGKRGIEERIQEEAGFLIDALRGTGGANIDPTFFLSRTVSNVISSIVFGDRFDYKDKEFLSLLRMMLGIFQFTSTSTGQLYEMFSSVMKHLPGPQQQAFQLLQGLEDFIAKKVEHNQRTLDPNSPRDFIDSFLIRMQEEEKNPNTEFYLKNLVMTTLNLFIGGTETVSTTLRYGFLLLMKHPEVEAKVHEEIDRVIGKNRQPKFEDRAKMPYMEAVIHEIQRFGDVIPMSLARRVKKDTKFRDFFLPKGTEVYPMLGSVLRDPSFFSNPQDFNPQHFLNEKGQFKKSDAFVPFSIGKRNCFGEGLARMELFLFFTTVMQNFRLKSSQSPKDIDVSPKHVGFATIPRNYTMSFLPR

[10] = biological target: CYP2D6 (Homo sapiens, UniProt P10635); assay: Incubation with recombinant CYP2D6
Sequence of CYP2D6 (P10635 whole entry): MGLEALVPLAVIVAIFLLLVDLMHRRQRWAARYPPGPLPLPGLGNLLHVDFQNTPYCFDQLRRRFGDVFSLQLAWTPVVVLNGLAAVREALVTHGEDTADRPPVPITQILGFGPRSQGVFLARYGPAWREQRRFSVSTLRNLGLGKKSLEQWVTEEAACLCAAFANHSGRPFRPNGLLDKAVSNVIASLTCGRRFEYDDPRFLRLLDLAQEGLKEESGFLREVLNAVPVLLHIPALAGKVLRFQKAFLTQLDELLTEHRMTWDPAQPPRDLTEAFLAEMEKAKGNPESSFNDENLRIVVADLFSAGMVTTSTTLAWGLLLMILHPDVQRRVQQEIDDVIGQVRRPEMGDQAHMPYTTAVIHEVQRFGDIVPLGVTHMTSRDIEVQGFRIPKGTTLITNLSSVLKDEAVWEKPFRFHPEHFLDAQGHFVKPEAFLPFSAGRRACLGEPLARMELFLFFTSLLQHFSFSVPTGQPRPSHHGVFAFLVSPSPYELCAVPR

[11] = biological target: CYP2C19 (Homo sapiens, UniProt P33261); assay: Incubation with recombinant CYP2C19
Sequence of CYP2C19 (P33261 whole entry): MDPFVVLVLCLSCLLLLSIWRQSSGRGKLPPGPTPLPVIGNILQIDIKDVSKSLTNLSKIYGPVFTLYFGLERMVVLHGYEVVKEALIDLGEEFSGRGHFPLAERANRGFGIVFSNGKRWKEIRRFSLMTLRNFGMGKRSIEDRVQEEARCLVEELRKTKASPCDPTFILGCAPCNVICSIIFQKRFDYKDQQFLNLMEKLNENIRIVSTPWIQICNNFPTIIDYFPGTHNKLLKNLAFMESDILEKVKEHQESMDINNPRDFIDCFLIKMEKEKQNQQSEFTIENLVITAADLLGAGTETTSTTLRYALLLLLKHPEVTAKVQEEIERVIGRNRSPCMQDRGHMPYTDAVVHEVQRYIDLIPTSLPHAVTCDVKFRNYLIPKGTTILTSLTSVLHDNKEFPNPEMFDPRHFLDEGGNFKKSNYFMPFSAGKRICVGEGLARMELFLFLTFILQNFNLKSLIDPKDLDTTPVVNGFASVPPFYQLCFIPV

[12] = biological target: T4, CYP2C8 (Homo sapiens, UniProt P10632); assay: Incubation with recombinant CYP2C8
T4 sequence (P10632 1-490): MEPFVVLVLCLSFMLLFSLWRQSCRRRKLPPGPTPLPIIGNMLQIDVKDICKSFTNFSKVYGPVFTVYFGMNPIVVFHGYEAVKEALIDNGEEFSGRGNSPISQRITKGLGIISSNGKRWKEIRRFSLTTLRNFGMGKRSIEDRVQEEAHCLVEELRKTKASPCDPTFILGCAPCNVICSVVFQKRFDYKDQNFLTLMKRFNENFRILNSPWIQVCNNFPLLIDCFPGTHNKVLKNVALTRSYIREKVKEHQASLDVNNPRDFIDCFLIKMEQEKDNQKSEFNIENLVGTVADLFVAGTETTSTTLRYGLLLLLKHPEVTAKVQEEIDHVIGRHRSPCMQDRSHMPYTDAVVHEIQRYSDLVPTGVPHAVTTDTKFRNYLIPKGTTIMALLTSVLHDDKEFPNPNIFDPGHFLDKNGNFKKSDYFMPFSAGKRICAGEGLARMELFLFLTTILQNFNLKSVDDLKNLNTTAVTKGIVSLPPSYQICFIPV

[13] = biological target: CYP2E1 (Homo sapiens, UniProt P05181); assay: Incubation with recombinant CYP2E1
Sequence of CYP2E1 (P05181 whole entry): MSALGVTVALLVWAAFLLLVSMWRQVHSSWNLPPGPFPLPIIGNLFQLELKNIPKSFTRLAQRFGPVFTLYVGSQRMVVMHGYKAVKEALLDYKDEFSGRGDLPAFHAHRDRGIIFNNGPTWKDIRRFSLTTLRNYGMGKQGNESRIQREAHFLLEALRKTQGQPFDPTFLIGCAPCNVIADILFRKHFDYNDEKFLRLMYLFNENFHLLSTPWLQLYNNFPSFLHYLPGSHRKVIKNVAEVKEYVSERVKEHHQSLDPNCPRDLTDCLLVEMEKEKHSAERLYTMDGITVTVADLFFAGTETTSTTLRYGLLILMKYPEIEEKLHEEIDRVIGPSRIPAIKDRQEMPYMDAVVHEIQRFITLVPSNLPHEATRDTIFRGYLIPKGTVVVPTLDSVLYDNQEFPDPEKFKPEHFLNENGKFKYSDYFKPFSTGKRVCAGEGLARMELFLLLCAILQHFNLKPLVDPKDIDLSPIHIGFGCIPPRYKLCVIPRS

[14] = system: tear production; assay: THP-induced dry eye in dogs: tear production; format: in vivo, Beagles; conditions: oral, 2 mpk alone
[15] = Whole blood stability, rat; conditions: rat whole blood, 37C
Description: (§1) Procedures for blood Stability. • A. 398 μL of blood from each species was added to an incubation plate, which was pre-warmed at 37C for 15 minutes. • B. After the pre-incubation, 2 μL of working solution (test compounds or control compounds) was spiked to 398 μL of blood to reach a final concentration of 1 μM for test compounds and 5 μM for control compounds. The final concentration of organic solvents is 0.5%. The assays were performed in duplicate. • C. The reaction samples were incubated at 37C. • D. Aliquots of 50 μL were taken from the reaction samples at 0, 15, 30, 60 and 120 minutes. The reaction was stopped by the addition of 50 μL ultrapure water and 400 μL cold acetonitrile. • E. All samples were vortexed for 10 minutes, followed by centrifugation at 3,220 g for 40 minutes to precipitate proteins. 100 μL of the supernatant was then transferred to a new plate. The supernatant was diluted with ultrapure water as needed for detection by LC-MS/MS. Sample Analysis
(§2) Samples were analyzed by LC-MS/MS to measure the concentration of the test compounds.
(§3) All calculations were carried out using Microsoft Excel and according to standard analysis methods that are known in the art.

[16] = Whole blood stability, human
Description: as §1, §2, §3

[17] = Whole blood stability, dog
Description: as §1, §2, §3

[18] = cumulative concentration response curve, no pre-treatment

Compound: OC(CCN1CCCCC1)(c1ccccc1)C1CCCCC1 (racemic) [Rac-THP, racemic trihexyphenidyl]
time spent holding bar, haloperidol-induced catalepsy ([1]; 30 minutes after injection): significantly attenuated haloperidol-induced catalepsy
time spent holding bar, haloperidol-induced catalepsy ([1]; 60 minutes after injection): significantly attenuated haloperidol-induced catalepsy
CLint [2]: 0.00 µL/min/pmol
t1/2 ([2]; unit not given): ∞
response of EFS-stimulated MPLM strips [3, 18]: concentration-dependent relaxation response
CLint [4]: 0.00 µL/min/pmol
t1/2 ([4]; unit not given): ∞
Substrates of CYP1A2 [5]: S and Rac
metabolites detected [6]: metabolite 18 when incubated with microsomes, but additional metabolites 13, 14, and 16 were also observed
Substrates of CYP3A5 [7]: Rac, R and S
Substrates of CYP3A4 [8]: Rac, R and S
CLint [9]: 0.00 µL/min/pmol
t1/2 ([9]; unit not given): ∞
Substrates of CYP2D6 [10]: Rac, R and S
Substrates of CYP2C19 [11]: Rac, R and S
CLint [12]: 0.00 µL/min/pmol
t1/2 ([12]; unit not given): ∞
CLint [13]: 0.00 µL/min/pmol
t1/2 ([13]; unit not given): ∞

Compound: CC(C[N+](C)(C)C)OC(N)=O (racemic) [BTC, bethanechol]
change over baseline ([3]; BTC at 30 μM following pre-treatment with Rac-THP at 30 nM): up to 50%
response of EFS-stimulated MPLM strips [3, 18]: concentration-dependent contraction
response of EFS-stimulated MPLM strips ([3]; following pre-treatment with Rac-THP at 30 nM): concentration-dependent relaxation of the isolated MPLM strips back to baseline
% Baseline tear production ([14]; 1 hour post administration): 107%
% Baseline tear production ([14]; 4 hours post administration): 117%

Compound: Mevinolin
Remaining Percentages (%) 0 min [15]: 100.00%
Remaining Percentages (%) 15 min [15]: 9.32%
Remaining Percentages (%) 30 min [15]: 1.68%
Remaining Percentages (%) 60 min [15]: 2.21%
Remaining Percentages (%) 120 min [15]: 2.47%
t1/2 [15]: 4.38 min

Compound: O=C(CCCN1CCC(O)(c2ccc(Cl)cc2)CC1)c1ccc(F)cc1 [haloperidol, Haloperidol]
time spent holding bar, haloperidol-induced catalepsy ([1]; 30 minutes after injection): significantly increased the time the rats spend holding the bar
time spent holding bar, haloperidol-induced catalepsy ([1]; 60 minutes after injection): significantly increased the time the rats spend holding the bar

Remaining Percentages (%) 0 min ([16]; human whole blood, 37C): 100.00%
Remaining Percentages (%) 15 min ([16]; human whole blood, 37C): 71.54%
Remaining Percentages (%) 30 min ([16]; human whole blood, 37C): 57.19%
Remaining Percentages (%) 60 min ([16]; human whole blood, 37C): 25.74%
Remaining Percentages (%) 120 min ([16]; human whole blood, 37C): 6.31%
half-life at 5 μM ([16]; human, whole blood): 31 min
Remaining Percentages (%) 0 min ([17]; dog whole blood, 37C): 100.00%
Remaining Percentages (%) 15 min ([17]; dog whole blood, 37C): 91.17%
Remaining Percentages (%) 30 min ([17]; dog whole blood, 37C): 90.30%
Remaining Percentages (%) 60 min ([17]; dog whole blood, 37C): 85.38%
Remaining Percentages (%) 120 min ([17]; dog whole blood, 37C): 62.08%
half-life at 5 μM ([17]; dog, whole blood): 184 min
Compound: CC(C)[N+](C)(CCOC(=O)C1c2ccccc2Oc2ccccc21)C(C)C [Propantheline]
